Publication PMC6273912, “Novel 5-Substituted 2-(Aylmethylthio)-4-chloro-N-(5-aryl-1,2,4-triazin-3-yl)benzenesulfonamides: Synthesis, Molecular Structure, Anticancer Activity, Apoptosis-Inducing Activity and Metabolic Stability” (Molecules, 2016)

Key:
Assay type in all cases: cell-based, human
MCF-7 (breast cancer) = assay: MTT cell viability assay, MCF-7; conditions: mean ± SD
Method: (§1) All chemicals, if not stated otherwise, were obtained from Sigma-Aldrich (St. Louis, MO, USA). The MCF-7 cell line was purchased from Cell Lines Services (Eppelheim, Germany), the HeLa and HCT-116 cell lines were obtained from the Department of Microbiology, Tumor and Cell Biology, Karolinska Institute (Stockholm, Sweden). Cells were cultured in Dulbecco’s modified Eagle’s medium (DMEM) supplemented with 10% fetal bovine serum, 2 mM glutamine, 100 units/mL penicillin, and 100 μg/mL streptomycin. Cultures were maintained in a humidified atmosphere with 5% CO2 at 37 °C in an incubator (HeraCell, Heraeus, Langenselbold, Germany).
(§2) Cell viability was determined using the MTT (3-(4,5-dimethylthiazol-2-yl)-2,5-diphenyl-tetrazoliumbromide) assay. Stock solutions of the studied compounds were prepared in 100% DMSO. […] Cells were seeded in 96-well plates at a density of 5 × 10^3 cells/well and treated for 72 h with the examined compounds in the concentration range 1–100 μM (1, 10, 25, 50 and 100 μM). Following treatment, MTT (0.5 mg/mL) was added to the medium and cells were further incubated for 2 h at 37 °C. Cells were lysed with DMSO and the absorbance of the formazan solution was measured at 550 nm with a plate reader (1420 multilabel counter, Victor, Jügesheim, Germany). […] The experiment was performed in triplicate. Values are expressed as the mean ± SD of at least three independent experiments.

HCT-116 (colon cancer) = assay: MTT cell viability assay, HCT-116; conditions: Homo sapiens, HCT-116, 72 h, 72 h of incubation, mean ± SD
Method: as §1, §2

HeLa (cervical cancer) = assay: MTT cell viability assay, HeLa; conditions: Homo sapiens, 72 h; for IC50: 72 h of incubation, mean ± SD
Method: as §1, §2

[1] = Homo sapiens, MCF7, 72 h of incubation

IC50 (HCT-116 (colon cancer)) [µM]	IC50 (HeLa (cervical cancer)) [µM]	IC50 (MCF-7 (breast cancer); [1]) [µM]	SMILES	IC50 (MCF-7 (breast cancer); 72 h of incubation) [µM]	viability at 100 µM (HeLa (cervical cancer); HeLa, 100 μM, read-out: Viability of cell line at 100 μM (HeLa)) [%]
–	–	–	N.N.[Cl][Pt][Cl] [Cisplatin, reference compound]	3 ± 0.1	–
75 ± 1	84 ± 1	80 ± 2	Cc1cc(S(=O)(=O)Nc2nncc(-c3cccc(F)c3)n2)c(SCc2ccccc2)cc1Cl [Compound 27, 2-Benzylthio-4-chloro-N-[5-(3-fluorophenyl)-1,2,4-triazin-3-yl]-5-methylbenzenesulfonamide]	–	–
720 ± 36	190 ± 7	110 ± 2	COc1ccc(-c2cnnc(NS(=O)(=O)c3cc(C)c(Cl)cc3SCc3ccccc3)n2)cc1 [Compound 29, 2-Benzylthio-4-chloro-N-[5-(4-methoxyphenyl)-1,2,4-triazin-3-yl]-5-methylbenzenesulfonamide]	–	–
88 ± 3	87 ± 4	87 ± 4	COc1cc(-c2cnnc(NS(=O)(=O)c3cc(C)c(Cl)cc3SCc3ccccc3)n2)cc(OC)c1OC [Compound 32, 2-Benzylthio-4-chloro-5-methyl-N-[5-(3,4,5-trimethoxyphenyl)-1,2,4-triazin-3-yl]benzenesulfonamide]	–	–
67 ± 1	76 ± 3	88 ± 1	Cc1cc(S(=O)(=O)Nc2nncc(-c3cccc(F)c3)n2)c(SCc2ccc(C(F)(F)F)cc2)cc1Cl [Compound 33, 4-Chloro-N-[5-(3-fluorophenyl)-1,2,4-triazin-3-yl]-5-methyl-2-[4-(trifluoromethyl)benzylthio]benzenesulfonamide]	–	–
97 ± 2	85 ± 1	99 ± 1	COc1ccc(-c2cnnc(NS(=O)(=O)c3cc(C)c(Cl)cc3SCc3c(C)noc3C)n2)cc1 [Compound 41, 4-Chloro-2-[(3,5-dimethylizoxazol-4-yl)methylthio]-N-[5-(4-methoxyphenyl)-1,2,4-triazin-3-yl]-5-methyl-benzenesulfonamide]	–	–
77 ± 2	82 ± 1	83 ± 2	COc1ccc(-c2cnnc(NS(=O)(=O)c3cc(C(=O)Nc4ccccc4)c(Cl)cc3SCc3ccccc3)n2)cc1 [Compound 42, 4-Benzylthio-2-chloro-5-{N-[5-(4-methoxyphenyl)-1,2,4-triazin-3-yl]sulfamoyl}-N-phenylbenzamide]	–	–
92 ± 3	130 ± 10	87 ± 2	COc1cccc(-c2cnnc(NS(=O)(=O)c3cc(C(=O)Nc4ccccc4)c(Cl)cc3SCc3ccccc3)n2)c1 [Compound 43, 4-Benzylthio-2-chloro-5-{N-[5-(3-methoxyphenyl)-1,2,4-triazin-3-yl]sulfamoyl}-N-phenylbenzamide]	–	–
160 ± 6	160 ± 8	90 ± 5	COc1ccc(-c2cnnc(NS(=O)(=O)c3cc(C(=O)Nc4ccccc4)c(Cl)cc3SCc3ccccc3)n2)cc1OC [Compound 44, 4-Benzylthio-2-chloro-5-{N-[5-(3,4-dimethoxyphenyl)-1,2,4-triazin-3-yl]sulfamoyl}-N-phenylbenzamide]	–	–
97 ± 2	82 ± 1	90 ± 1	O=C(Nc1ccc(Cl)cc1)c1cc(S(=O)(=O)Nc2nncc(-c3cccc(F)c3)n2)c(SCc2ccccc2)cc1Cl [Compound 45, 4-Benzylthio-2-chloro-N-(4-chlorophenyl)-5-{N-[5-(3-fluorophenyl)-1,2,4-triazin-3-yl]sulfamoyl}benzamide]	–	–
80 ± 3	80 ± 2	87 ± 3	COc1cccc(-c2cnnc(NS(=O)(=O)c3cc(C(=O)Nc4ccc(Cl)cc4)c(Cl)cc3SCc3ccccc3)n2)c1 [Compound 48, 4-Benzylthio-2-chloro-N-(4-chlorophenyl)-5-{N-[5-(3-methoxyphenyl)-1,2,4-triazin-3-yl]sulfamoyl}-benzamide]	–	–
110 ± 2	120 ± 6	81 ± 5	COc1ccc(-c2cnnc(NS(=O)(=O)c3cc(C(=O)Nc4ccc(Cl)cc4)c(Cl)cc3SCc3ccccc3)n2)cc1OC [Compound 49, 4-Benzylthio-2-chloro-N-(4-chlorophenyl)-5-{N-[5-(3,4-dimethoxyphenyl)-1,2,4-triazin-3-yl]sulfamoyl}-benzamide]	–	–
115 ± 3	130 ± 8	120 ± 4	COc1cc(-c2cnnc(NS(=O)(=O)c3cc(C(=O)Nc4ccc(Cl)cc4)c(Cl)cc3SCc3ccccc3)n2)cc(OC)c1OC [Compound 50, 4-Benzylthio-2-chloro-N-(4-chlorophenyl)-5-{N-[5-(3,4,5-trimethoxyphenyl)-1,2,4-triazin-3-yl]sulfamoyl}-benzamide]	–	–
190 ± 13	–	95 ± 5	Cc1ccc(NC(=O)c2cc(S(=O)(=O)Nc3nncc(-c4cccc(F)c4)n3)c(SCc3ccccc3)cc2Cl)cc1 [Compound 51, 4-Benzylthio-2-chloro-5-{N-[5-(3-fluorophenyl)-1,2,4-triazin-3-yl]sulfamoyl}-N-(4-methylphenyl)benzamide]	–	100
76 ± 2	74 ± 2	88 ± 2	COc1ccc(-c2cnnc(NS(=O)(=O)c3cc(C(=O)Nc4ccc(C)cc4)c(Cl)cc3SCc3ccccc3)n2)cc1 [Compound 53, 4-Benzylthio-2-chloro-5-{N-[5-(4-methoxyphenyl)-1,2,4-triazin-3-yl]sulfamoyl}-N-(4-methylphenyl)-benzamide]	–	–
84 ± 5	82 ± 1	96 ± 5	COc1cccc(-c2cnnc(NS(=O)(=O)c3cc(C(=O)Nc4ccc(C)cc4)c(Cl)cc3SCc3ccccc3)n2)c1 [Compound 54, 4-Benzylthio-2-chloro-5-{N-[5-(3-methoxyphenyl)-1,2,4-triazin-3-yl]sulfamoyl}-N-(4-methylphenyl)benzamide]	–	–
150 ± 3	105 ± 4	150 ± 6	COc1ccc(-c2cnnc(NS(=O)(=O)c3cc(C(=O)Nc4ccc(C)cc4)c(Cl)cc3SCc3ccccc3)n2)cc1OC [Compound 55, 4-Benzylthio-2-chloro-5-{N-[5-(3,4-dimethoxyphenyl)-1,2,4-triazin-3-yl]sulfamoyl}-N-(4-methylphenyl)-benzamide]	–	–
75 ± 2	80 ± 2	89 ± 3	COc1cc(-c2cnnc(NS(=O)(=O)c3cc(C(=O)Nc4ccc(C)cc4)c(Cl)cc3SCc3ccccc3)n2)cc(OC)c1OC [Compound 56, 4-Benzylthio-2-chloro-N-(4-methylphenyl)-5-{N-[5-(3,4,5-trimethoxyphenyl)-1,2,4-triazin-3-yl]sulfamoyl}-benzamide]	–	–
73 ± 1	80 ± 1	90 ± 1	COc1ccc(NC(=O)c2cc(S(=O)(=O)Nc3nncc(-c4ccc(OC)cc4)n3)c(SCc3ccccc3)cc2Cl)cc1 [Compound 57, 4-Benzylthio-2-chloro-N-(4-methoxyphenyl)-5-{N-[5-(4-methoxyphenyl)-1,2,4-triazin-3-yl]sulfamoyl}benzamide]	–	–
98 ± 2	88 ± 6	92 ± 6	COc1ccc(NC(=O)c2cc(S(=O)(=O)Nc3nncc(-c4cccc(OC)c4)n3)c(SCc3ccccc3)cc2Cl)cc1 [Compound 58, 4-Benzylthio-2-chloro-N-(4-methoxyphenyl)-5-{N-[5-(3-methoxyphenyl)-1,2,4-triazin-3-yl]sulfamoyl}benzamide]	–	–
140 ± 5	150 ± 2	100 ± 5	COc1ccc(NC(=O)c2cc(S(=O)(=O)Nc3nncc(-c4ccc(OC)c(OC)c4)n3)c(SCc3ccccc3)cc2Cl)cc1 [Compound 59, 4-Benzylthio-2-chloro-5-{N-[5-(3,4-dimethoxyphenyl)-1,2,4-triazin-3-yl]sulfamoyl}-N-(4-methoxyphenyl)-benzamide]	–	–
